Values quoted from earlier work in patent publication US9248119B2, “Modified release dosage forms of xanthine oxidoreductase inhibitor or xanthine oxidase inhibitors” (Takeda Pharmaceuticals U.S.A., Inc., priority 2010, dated 2016).

Legend:
[1] = test system: renal injury and hypertension associated with hyperuricemia; conditions: Mazzali M, et al.; cited from earlier work
[2] = test system: xanthine oxidoreductase; conditions: cited from earlier work

| Structure (SMILES) | protection against renal injury and hypertension associated with hyperuricemia [1] | inhibition of xanthine oxidoreductase activity [2] |
| --- | --- | --- |
| Oc1ncnc2[nH]ncc12 [Allopurinol] | prevent the renal injury and hypertension |  |
| CCc1oc2ccccc2c1C(=O)c1cc(I)c(O)c(I)c1 [Benziodarone] | lower | does not inhibit |
